The source made the active and inactive calls.
Assays:
[1] = target: Multidrug resistance protein CDR1 (Candida albicans, UniProt P43071); assay: inhibition of Nile Red efflux via Candida CDR1 – S. cerevisiae AD1-8u, singleplex, Cherry Pick1 hits, dose response (AID 588606); format: functional
[2] = target: Benomyl/methotrexate resistance protein (Candida albicans, UniProt P28873); assay: Candida albicans Mdr1 pump inhibition curves – singleplex, Cherry Pick1 hits, dose response (AID 588608); format: functional
[3] = target: Multidrug resistance protein CDR2 (Candida albicans (strain SC5314 / ATCC MYA-2876) (Yeast), UniProt P78595); assay: inhibition of Nile Red efflux via Candida CDR2 – S. cerevisiae AD1-8u, singleplex, Cherry Pick1 hits, dose response (AID 588604); format: functional
[4] = target: Mitochondrial peptide methionine sulfoxide reductase (Bos taurus, UniProt P54149); format: functional;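 also: absorbance read-out, biochemical high-throughput dose-response screen for MsrA inhibitors, confirmatory; recombinant bovine MsrA coupled to E. coli TrxB with NADPH and selenocystamine; potency is for inhibitors of MsrA activity on DMSO substrate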
[5] = target: T1, Interleukin-8 (Homo sapiens, UniProt P10145); assay: Dose Response confirmation of uHTS small molecule hits for cystic fibrosis induced NFkb Inhibitors in a PAF-induced IL8 counterscreen.; format: functional; conditions: read-out: IC50_Mean
[6] = target: T1, Interleukin-8; assay: Dose Response confirmation of uHTS small molecule hits for cystic fibrosis induced NFkb Inhibitors in a TNFa-induced IL8 counterscreen.; format: functional; conditions: read-out: IC50_Mean
[7] = luciferase reporter signal suppression in cells – H4 neuroglioma cells, luminescence, dose response (AID 1990); format: functional, cell-based
[8] = NIH3T3 cell viability loss, ATP content – CellTiter-Glo luminescence, cherry-pick, set 2, cytotoxicity control for HSP40 inhibitor project, dose response (AID 624265); format: functional
[9] = Trypanosoma cruzi growth suppression in host cells – NIH3T3 host cells, beta-gal luminescence, confirmation (AID 2044); format: functional, cell-based;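 also: intracellular parasites grown in NIH/3T3 mouse fibroblasts as host cells; luminescent beta-galactosidase reporter signal from transgenic T. cruzi replicating inside host cells; inhibitors lower the luminescence signal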
[10] = NIH3T3 cell viability loss – ATP luminescence, mouse fibroblasts, counter-screen, dose response (AID 2010); format: functional, cell-based;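 also: cells exposed to compound for about 90 hours before reading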
[11] = Luminescence Cell-Based Dose Response HTS to Identify Inhibitors of 5'UTR Stem-Loop Driven Prion Protein mRNA Translation in H4 Neuroglioblastoma Cells. [Related pubchem assays: 1827 (Project Summary), 1813 (Primary HTS)]; format: functional
[12] = target: Heat shock protein HSP 90-alpha (Homo sapiens, UniProt P07900); format: functional, organism-based
[13] = alpha-synuclein stem-loop luciferase translation blockers – H4 neuroglioma cells, luminescence, confirmation (AID 1988); format: functional, cell-based
[14] = target: T2, ATP-dependent translocase ABCB1 (Homo sapiens, UniProt P08183); assay: inhibition of BCRP-mediated JC-1 efflux – Ig-MXP3 cells, flow cytometry, set 2, dose response (AID 504566); format: functional; conditions: read-out: EC50_MICROM_;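 also: flow cytometry median green fluorescence of retained JC-1 dye; potency of efflux pump inhibition measured as rising substrate retention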
[15] = target: T2, ATP-dependent translocase ABCB1; assay: P-gp JC-1 efflux blockade concentration-response – Jurkat-DNR cells, flow cytometry, set 2, dose response (AID 504569); format: functional; conditions: read-out: EC50_MICROM_;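 also: potency of pump inhibitors that raise cellular JC-1 green fluorescence up to the nicardipine level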

T2 sequence (P08183 whole entry): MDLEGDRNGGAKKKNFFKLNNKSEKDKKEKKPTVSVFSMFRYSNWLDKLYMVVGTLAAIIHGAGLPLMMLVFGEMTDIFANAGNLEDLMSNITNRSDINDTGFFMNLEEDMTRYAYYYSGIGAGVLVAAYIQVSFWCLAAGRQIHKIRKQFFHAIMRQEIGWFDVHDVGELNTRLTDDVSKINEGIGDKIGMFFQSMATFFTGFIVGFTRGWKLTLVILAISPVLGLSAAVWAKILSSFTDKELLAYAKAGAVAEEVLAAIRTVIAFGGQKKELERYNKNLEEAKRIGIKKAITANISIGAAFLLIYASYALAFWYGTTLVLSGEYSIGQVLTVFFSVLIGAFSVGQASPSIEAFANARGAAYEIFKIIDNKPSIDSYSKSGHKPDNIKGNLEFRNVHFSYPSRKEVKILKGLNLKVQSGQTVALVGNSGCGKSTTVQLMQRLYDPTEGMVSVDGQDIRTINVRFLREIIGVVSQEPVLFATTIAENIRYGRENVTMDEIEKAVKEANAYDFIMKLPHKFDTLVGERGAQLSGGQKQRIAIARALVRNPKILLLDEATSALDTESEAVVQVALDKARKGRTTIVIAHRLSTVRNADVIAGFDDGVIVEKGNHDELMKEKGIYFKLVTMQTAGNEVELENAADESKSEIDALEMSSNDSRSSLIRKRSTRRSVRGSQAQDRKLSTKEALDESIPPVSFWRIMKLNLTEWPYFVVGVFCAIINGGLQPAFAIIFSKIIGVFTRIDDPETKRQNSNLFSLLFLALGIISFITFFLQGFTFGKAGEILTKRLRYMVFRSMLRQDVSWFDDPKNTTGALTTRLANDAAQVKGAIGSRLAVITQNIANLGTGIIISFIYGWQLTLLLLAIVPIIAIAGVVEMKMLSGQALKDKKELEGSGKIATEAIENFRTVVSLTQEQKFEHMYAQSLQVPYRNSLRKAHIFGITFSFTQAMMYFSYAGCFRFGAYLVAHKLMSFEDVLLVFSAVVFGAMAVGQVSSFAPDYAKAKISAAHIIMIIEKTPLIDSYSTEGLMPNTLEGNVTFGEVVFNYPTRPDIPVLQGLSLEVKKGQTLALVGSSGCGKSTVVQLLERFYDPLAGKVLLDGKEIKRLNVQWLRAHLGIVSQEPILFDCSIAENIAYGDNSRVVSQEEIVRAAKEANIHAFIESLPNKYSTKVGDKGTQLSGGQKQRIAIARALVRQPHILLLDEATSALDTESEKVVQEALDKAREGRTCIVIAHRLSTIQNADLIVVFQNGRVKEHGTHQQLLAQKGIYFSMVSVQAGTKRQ
T1 sequence (P10145 whole entry): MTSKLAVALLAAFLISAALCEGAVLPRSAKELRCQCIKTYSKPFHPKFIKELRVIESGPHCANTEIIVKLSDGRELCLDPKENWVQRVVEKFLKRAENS
Benomyl/methotrexate resistance protein, sequence (P28873 whole entry): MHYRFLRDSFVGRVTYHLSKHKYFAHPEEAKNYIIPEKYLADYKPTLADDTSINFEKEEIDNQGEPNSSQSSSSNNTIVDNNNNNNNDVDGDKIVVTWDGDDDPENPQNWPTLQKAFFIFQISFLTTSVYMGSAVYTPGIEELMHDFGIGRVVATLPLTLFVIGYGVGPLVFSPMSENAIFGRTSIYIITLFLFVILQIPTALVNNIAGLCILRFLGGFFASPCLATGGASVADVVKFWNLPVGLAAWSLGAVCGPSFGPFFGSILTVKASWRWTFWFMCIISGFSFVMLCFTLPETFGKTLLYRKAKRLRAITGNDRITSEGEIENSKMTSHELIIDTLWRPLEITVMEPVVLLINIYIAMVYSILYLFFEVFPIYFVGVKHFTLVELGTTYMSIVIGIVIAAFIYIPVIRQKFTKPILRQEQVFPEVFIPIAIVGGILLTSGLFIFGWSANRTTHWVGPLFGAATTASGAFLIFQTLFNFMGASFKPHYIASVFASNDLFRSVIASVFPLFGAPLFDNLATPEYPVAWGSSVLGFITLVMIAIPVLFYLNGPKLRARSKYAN
Mitochondrial peptide methionine sulfoxide reductase, sequence (P54149 whole entry): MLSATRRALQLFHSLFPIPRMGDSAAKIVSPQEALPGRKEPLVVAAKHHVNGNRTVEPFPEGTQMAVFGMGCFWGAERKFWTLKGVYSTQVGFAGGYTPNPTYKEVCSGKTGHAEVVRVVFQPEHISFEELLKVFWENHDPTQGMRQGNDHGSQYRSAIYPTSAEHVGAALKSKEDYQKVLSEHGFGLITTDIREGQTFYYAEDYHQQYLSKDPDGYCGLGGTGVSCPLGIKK
Multidrug resistance protein CDR2, sequence (P78595 whole entry): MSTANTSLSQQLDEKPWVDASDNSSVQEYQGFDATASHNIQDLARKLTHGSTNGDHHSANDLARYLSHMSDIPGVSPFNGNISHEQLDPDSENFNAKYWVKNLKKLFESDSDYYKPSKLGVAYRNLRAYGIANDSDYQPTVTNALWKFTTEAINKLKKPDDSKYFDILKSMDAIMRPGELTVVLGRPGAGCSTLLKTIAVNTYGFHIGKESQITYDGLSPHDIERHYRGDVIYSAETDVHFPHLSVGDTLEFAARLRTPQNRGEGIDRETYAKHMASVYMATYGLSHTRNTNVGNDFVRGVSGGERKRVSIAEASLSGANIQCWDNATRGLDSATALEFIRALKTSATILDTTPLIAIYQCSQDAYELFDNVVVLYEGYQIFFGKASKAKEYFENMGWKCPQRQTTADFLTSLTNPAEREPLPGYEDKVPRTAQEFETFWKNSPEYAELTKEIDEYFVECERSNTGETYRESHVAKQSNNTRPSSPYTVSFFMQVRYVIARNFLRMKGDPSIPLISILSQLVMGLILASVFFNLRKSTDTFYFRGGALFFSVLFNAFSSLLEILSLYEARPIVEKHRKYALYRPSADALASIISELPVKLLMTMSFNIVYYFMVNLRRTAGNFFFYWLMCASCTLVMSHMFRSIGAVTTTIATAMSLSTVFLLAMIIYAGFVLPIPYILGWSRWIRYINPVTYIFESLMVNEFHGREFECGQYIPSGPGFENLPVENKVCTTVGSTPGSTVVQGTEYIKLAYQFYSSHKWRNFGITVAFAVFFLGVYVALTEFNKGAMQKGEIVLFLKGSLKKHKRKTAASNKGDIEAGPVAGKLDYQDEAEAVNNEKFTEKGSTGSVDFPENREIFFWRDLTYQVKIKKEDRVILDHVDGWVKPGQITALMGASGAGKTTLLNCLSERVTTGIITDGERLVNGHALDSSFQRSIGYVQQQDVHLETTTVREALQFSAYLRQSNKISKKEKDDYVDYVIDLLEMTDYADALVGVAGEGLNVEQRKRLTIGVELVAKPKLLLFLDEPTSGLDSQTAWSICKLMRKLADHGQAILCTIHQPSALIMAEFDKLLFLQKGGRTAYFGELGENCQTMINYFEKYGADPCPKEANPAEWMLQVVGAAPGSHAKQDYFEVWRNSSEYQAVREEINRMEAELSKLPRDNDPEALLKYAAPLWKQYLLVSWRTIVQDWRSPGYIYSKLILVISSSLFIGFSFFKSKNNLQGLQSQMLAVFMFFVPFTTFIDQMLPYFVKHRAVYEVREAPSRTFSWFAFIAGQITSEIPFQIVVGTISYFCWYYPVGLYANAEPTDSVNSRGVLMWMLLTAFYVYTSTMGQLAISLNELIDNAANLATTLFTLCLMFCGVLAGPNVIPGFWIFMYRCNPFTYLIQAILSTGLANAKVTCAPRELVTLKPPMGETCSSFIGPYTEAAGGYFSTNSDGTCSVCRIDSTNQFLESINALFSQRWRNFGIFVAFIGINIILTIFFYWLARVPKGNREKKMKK

## COc1cc(OC)cc(-c2sc3ccc(OC)cc3c2-c2ccc(OCCN3CCCCC3)cc2)c1
[1]
  EC50: 10.7 µM (active)
[2]
  EC50: 10.6 µM (active)
[3]
  EC50: 7.51 µM (active)

## O=C(O)CC1SC(N/N=C/C=C/c2ccccc2)=NC1=O (stereo not given)
[4]
  IC50: 97.5 µM (inactive)

## C=Cc1ccc(CC2(C)C(=O)Nc3ccc(-c4cccnc4)cc32)cc1 (stereo not given)
[5]
  IC50: 25.5 µM (inactive)
[6]
  IC50: 45.1 µM (inactive)

## CCC(C)n1ncn(-c2ccc(N3CCN(c4ccc(OCC5COC(Cn6cncn6)(c6ccc(Cl)cc6Cl)O5)cc4)CC3)cc2)c1=O (stereo not given) [ITRACONAZOLE]
[7]
  EC50: > 120 µM (not active)
[8]
  AbsAC35_uM: 105.6 µM
[9]
  EC50: 0.1 µM (active)
[10]
  EC50: > 60 µM (not active)
[11]
  EC50: 50 µM (active)
[12]
  AC50: < 0.195 µM (active)
[13]
  EC50: > 120 µM (not active)

## Cc1ccc(-c2cc3nc(-c4ccccc4)cc(N4CCN(C(=O)c5ccco5)CC4)n3n2)cc1
[14]
  EC50: 0.95 µM (active)
[15]
  EC50: 2.41 µM (active)
